Reference: ChEMBL document CHEMBL2331297, “Potent and selective tariquidar bioisosters as potential PET radiotracers for imaging P-gp” (Bioorg Med Chem Lett, 2013)

Legend:
[1] = target: Multidrug resistance-associated protein 1 (Homo sapiens, UniProt P33527); assay: Activity at MRP1 (unknown origin) expressed in MDCK cells using calcein AM as substrate incubated for 30 mins prior to substrate addition measured after 30 mins by fluorometric analysis; format: cell-based
[2] = target: ATP-dependent translocase ABCB1 (Homo sapiens, UniProt P08183); assay: Activity at MDR1 (unknown origin) expressed in MDCK cells using calcein AM as substrate incubated for 30 mins prior to substrate addition measured after 30 mins by fluorometric analysis; format: cell-based
MDR1 (ABCB1, P-gp) [3] = target: T1, MDR1 (ABCB1, P-gp) (Homo sapiens, UniProt P08183); assay: Activity at MDR1 (unknown origin) expressed in MDCK cells assessed as ATPase activity at 50 uM after 2 hrs by ATPlite assay; format: cell-based; details: MDCK cells expressing MDR1, read-out: Activity
[4] = Efflux ratio of apparent permeability from basolateral to apical to apical to basolateral side of human Caco2 cells after 120 mins; format: ADME, cell-based; details: Caco-2
MDR1 (ABCB1, P-gp) [5] = target: T1, MDR1 (ABCB1, P-gp); assay: Ratio of MC90 EC50 to compound EC50 for MDR1 (unknown origin) by fluorometric analysis; details: not told, read-out: Ratio EC50
[6] = target: T2, Broad substrate specificity ATP-binding cassette transporter ABCG2 (Homo sapiens, UniProt Q9UNQ0); assay: Activity at BCRP (unknown origin) expressed in MDCK cells using […] as substrate incubated for 30 mins prior to substrate addition measured after 30 mins by fluorometric analysis; format: cell-based
T2 sequence (Q9UNQ0 whole entry): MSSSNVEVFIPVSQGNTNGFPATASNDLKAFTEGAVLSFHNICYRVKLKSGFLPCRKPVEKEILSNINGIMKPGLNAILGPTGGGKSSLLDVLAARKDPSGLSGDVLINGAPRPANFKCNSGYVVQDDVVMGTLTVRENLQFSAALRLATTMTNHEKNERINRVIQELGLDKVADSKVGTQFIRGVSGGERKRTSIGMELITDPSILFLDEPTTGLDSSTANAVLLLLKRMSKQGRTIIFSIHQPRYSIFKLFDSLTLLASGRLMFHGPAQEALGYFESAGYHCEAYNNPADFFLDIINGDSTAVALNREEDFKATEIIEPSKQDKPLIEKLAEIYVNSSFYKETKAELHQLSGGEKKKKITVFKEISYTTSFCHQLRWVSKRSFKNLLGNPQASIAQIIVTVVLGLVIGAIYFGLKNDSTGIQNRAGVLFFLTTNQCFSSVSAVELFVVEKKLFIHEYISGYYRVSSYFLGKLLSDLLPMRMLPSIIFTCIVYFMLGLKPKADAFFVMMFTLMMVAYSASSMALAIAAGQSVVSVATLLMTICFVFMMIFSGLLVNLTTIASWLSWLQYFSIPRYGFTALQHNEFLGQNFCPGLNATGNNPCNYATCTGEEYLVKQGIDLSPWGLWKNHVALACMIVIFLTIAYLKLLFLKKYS

T1 sequence (P08183 whole entry): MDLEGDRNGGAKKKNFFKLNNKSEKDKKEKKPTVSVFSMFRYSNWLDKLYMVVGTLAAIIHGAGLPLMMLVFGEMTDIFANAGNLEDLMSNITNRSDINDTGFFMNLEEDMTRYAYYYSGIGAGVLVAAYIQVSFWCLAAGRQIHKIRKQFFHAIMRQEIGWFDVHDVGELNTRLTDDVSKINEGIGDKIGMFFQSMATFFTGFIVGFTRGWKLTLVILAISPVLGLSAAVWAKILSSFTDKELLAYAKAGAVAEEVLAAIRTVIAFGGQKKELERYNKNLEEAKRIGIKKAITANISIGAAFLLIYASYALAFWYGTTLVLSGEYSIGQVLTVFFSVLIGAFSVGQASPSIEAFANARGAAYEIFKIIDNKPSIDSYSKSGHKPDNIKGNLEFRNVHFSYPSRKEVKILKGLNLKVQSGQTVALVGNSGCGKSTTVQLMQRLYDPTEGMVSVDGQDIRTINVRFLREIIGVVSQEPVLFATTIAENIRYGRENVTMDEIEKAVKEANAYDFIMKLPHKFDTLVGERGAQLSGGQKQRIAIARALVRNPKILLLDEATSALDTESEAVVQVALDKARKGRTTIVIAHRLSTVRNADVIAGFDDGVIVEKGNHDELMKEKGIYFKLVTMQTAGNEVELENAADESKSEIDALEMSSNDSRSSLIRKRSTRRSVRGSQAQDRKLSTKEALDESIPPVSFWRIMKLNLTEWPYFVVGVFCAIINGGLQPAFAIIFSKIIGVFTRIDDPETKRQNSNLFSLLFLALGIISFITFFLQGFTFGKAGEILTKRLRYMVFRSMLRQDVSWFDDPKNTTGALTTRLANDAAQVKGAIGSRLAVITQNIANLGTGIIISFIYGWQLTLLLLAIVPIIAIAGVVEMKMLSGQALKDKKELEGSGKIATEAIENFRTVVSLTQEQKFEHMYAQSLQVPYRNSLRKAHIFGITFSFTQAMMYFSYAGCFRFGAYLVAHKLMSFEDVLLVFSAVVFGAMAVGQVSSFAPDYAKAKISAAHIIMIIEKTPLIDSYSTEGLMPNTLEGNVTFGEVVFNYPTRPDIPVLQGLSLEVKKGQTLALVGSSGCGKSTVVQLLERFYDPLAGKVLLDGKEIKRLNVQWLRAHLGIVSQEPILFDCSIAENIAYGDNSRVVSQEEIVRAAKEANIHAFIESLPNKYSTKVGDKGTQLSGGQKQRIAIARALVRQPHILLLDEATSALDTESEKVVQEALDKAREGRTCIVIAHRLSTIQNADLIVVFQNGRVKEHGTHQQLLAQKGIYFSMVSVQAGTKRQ
Chain of ATP-dependent translocase ABCB1 (P08183 whole entry): as above
Chain of Multidrug resistance-associated protein 1 (P33527 whole entry): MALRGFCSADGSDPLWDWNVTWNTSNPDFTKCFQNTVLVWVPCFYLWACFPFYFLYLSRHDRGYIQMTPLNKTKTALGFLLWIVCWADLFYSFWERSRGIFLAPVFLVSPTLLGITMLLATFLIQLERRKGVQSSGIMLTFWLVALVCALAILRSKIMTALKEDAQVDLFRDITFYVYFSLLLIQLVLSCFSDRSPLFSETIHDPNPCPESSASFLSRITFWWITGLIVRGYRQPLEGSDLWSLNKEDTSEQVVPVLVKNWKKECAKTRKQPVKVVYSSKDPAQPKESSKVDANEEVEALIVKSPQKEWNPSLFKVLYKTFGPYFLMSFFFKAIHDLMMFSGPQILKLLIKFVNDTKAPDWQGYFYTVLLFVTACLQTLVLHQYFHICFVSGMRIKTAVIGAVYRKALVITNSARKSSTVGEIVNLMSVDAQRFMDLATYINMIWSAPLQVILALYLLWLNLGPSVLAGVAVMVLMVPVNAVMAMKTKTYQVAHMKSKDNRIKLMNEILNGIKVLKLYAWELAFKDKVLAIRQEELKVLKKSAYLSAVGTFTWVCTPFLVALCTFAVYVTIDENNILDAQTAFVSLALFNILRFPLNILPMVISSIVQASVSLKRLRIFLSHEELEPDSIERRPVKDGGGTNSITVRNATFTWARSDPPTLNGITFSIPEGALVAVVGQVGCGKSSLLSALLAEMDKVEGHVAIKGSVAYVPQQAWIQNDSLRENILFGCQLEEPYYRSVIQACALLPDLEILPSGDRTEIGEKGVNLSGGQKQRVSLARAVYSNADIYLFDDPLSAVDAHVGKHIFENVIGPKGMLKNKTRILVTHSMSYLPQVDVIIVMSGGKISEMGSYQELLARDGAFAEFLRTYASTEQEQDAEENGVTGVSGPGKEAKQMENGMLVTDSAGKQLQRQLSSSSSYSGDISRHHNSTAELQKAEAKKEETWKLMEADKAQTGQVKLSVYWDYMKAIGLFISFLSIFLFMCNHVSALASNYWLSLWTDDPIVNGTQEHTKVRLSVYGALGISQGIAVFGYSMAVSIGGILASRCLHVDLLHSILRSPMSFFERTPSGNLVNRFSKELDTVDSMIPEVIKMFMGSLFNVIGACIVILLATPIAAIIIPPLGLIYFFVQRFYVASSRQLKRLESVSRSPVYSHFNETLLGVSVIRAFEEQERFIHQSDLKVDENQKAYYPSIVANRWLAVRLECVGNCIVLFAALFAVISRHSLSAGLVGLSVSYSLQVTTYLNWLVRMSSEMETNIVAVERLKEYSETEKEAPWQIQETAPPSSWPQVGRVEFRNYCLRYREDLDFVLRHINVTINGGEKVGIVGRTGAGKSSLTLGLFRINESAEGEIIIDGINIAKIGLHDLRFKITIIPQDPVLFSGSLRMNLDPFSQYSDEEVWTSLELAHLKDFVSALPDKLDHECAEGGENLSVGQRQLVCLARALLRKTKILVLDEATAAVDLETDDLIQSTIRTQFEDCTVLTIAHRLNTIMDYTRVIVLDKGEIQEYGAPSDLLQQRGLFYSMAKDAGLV

| Compound | EC50 [1] | EC50 [2] | activity at 2 h, 50 µM (MDR1 (ABCB1, P-gp) [3]) | efflux ratio at 2 h [4] | EC50 [6] | selectivity ratio (MDR1 (ABCB1, P-gp) [5]) |
| --- | --- | --- | --- | --- | --- | --- |
| COc1cc2c(cc1OC)CN(Cc1ccc(Oc3ccc(C(N)=O)cn3)cc1)CC2 | > 100 µM | 19 µM |  |  |  |  |
| COc1cc2c(cc1OC)CN(CCc1ccc(NC(=O)c3cc(OC)c(OC)cc3NC(=O)c3cnc4ccccc4c3)cc1)CC2 [TARIQUIDAR] |  |  | 30% | 22 |  |  |
| COc1cc2c(cc1OC)CN(Cc1ccc(Oc3ccc(C(N)=S)cn3)cc1)CC2 | > 100 µM | 11 µM |  |  |  |  |
| COc1cc2c(cc1OC)CN(CC/C=C1\CCCc3c(OC)cccc31)CC2 |  |  |  | 1.64 | 90 µM |  |
| COc1ccc(-c2nc(CN3CCc4cc(OC)c(OC)cc4C3)cs2)cc1 | 2.7 µM | 1.94 µM |  | 6.1 | 30 µM |  |

More lines, main results first:

| EC50 [1] | EC50 [2] | activity at 2 h, 50 µM (MDR1 (ABCB1, P-gp) [3]) | efflux ratio at 2 h [4] | EC50 [6] | Compound | selectivity ratio (MDR1 (ABCB1, P-gp) [5]) |
| --- | --- | --- | --- | --- | --- | --- |
| > 100 µM | 0.95 µM | 20% | 2.5 | 0.5 µM | COc1cccc(-c2csc(-c3ccc(Oc4ccc(CN5CCc6cc(OC)c(OC)cc6C5)cc4)nc3)n2)c1 | 10 |
| > 100 µM | 0.51 µM | 16% | 2.7 | 10 µM | COc1cc2c(cc1OC)CN(Cc1ccc(Oc3ccc(-c4nc(-c5ccc([N+](=O)[O-])cc5)cs4)cn3)cc1)CC2 | 10 |
| > 100 µM | 0.41 µM | 18% | 4.5 | 1 µM | COc1cc2c(cc1OC)CN(Cc1ccc(Oc3ccc(-c4nc(-c5ccc(F)cc5)cs4)cn3)cc1)CC2 | 10 |
| 21 µM | 0.6 µM |  | 2.6 | 15 µM | COc1ccc(-c2ccc(CN3CCc4cc(OC)c(OC)cc4C3)cc2)cc1 |  |
| > 100 µM | 0.25 µM | 20% | 0.9 | 0.018 µM | COc1cc2c(cc1OC)CN(Cc1ccc(Oc3ccc(-c4nc(-c5cccc(O)c5)cs4)cn3)cc1)CC2 | 10 |
